Assays:
Assay type in all cases: biochemical
[1] = biological target: KAT7+BRPF1+EAF6+ING5 4 protein complex (Homo sapiens (Human), UniProt O95251); experiment: KAT7 BRPF1 assay (SAMDI-MS acetylation of H3 1-21 peptide); details: Morrison equation fit; replicate number in parentheses
KAT5 Full length enzyme = KAT5 Full length enzyme (Homo sapiens (Human), UniProt Q92993); experiment: KAT5 assay (SAMDI-MS acetylation of H4 1-21 peptide); details: Morrison equation fit; replicate number in parentheses; read-out: KAT5 Ki (nM) (replicate number)
[2] = biological target: KAT7+BRPF2+EAF6+ING5 4 protein complex (Homo sapiens (Human), UniProt O95251); experiment: KAT7 BRPF2 assay (SAMDI-MS acetylation of H3 1-21 peptide); details: Morrison equation fit; replicate number in parentheses; read-out: KAT7 BRPF2 Ki (nM) (replicate number)
KAT6A Full length enzyme = KAT6A Full length enzyme (Homo sapiens (Human), UniProt Q92794); experiment: KAT6A assay (SAMDI-MS acetylation of H3 1-21 peptide); details: Morrison equation fit; replicate number in parentheses; read-out: KAT6A Ki (nM) (replicate number)
KAT8 Full length enzyme = KAT8 Full length enzyme (Homo sapiens (Human), UniProt Q9H7Z6); experiment: KAT8 assay (SAMDI-MS acetylation of H3 1-21 peptide); details: Morrison equation fit; replicate number in parentheses; read-out: KAT8 Ki (nM) (replicate number)
[3] = biological target: KAT7+JADE1+EAF6+ING5 4 protein complex (Homo sapiens (Human), UniProt O95251); experiment: KAT7 JADE1 assay (SAMDI-MS acetylation of H3 1-21 peptide); details: Morrison equation fit; replicate number in parentheses; read-out: KAT7 JADE1 Ki (nM) (replicate number)

KAT5 Full length enzyme, sequence (Q92993 whole entry): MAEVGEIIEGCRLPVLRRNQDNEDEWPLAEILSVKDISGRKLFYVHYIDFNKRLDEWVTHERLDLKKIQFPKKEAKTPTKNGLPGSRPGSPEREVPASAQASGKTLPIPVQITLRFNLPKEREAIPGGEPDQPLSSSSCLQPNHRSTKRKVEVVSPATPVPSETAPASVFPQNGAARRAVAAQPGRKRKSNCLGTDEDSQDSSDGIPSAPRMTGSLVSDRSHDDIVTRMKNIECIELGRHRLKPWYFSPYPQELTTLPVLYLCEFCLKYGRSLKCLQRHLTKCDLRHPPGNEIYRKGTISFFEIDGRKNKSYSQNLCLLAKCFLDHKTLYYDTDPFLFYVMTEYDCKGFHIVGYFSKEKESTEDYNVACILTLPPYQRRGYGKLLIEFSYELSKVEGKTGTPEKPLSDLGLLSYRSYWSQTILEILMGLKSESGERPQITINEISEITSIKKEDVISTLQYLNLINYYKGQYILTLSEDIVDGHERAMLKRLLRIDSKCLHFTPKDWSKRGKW
KAT6A Full length enzyme, sequence (Q92794 other isoform, or with tags, fused parts or gaps): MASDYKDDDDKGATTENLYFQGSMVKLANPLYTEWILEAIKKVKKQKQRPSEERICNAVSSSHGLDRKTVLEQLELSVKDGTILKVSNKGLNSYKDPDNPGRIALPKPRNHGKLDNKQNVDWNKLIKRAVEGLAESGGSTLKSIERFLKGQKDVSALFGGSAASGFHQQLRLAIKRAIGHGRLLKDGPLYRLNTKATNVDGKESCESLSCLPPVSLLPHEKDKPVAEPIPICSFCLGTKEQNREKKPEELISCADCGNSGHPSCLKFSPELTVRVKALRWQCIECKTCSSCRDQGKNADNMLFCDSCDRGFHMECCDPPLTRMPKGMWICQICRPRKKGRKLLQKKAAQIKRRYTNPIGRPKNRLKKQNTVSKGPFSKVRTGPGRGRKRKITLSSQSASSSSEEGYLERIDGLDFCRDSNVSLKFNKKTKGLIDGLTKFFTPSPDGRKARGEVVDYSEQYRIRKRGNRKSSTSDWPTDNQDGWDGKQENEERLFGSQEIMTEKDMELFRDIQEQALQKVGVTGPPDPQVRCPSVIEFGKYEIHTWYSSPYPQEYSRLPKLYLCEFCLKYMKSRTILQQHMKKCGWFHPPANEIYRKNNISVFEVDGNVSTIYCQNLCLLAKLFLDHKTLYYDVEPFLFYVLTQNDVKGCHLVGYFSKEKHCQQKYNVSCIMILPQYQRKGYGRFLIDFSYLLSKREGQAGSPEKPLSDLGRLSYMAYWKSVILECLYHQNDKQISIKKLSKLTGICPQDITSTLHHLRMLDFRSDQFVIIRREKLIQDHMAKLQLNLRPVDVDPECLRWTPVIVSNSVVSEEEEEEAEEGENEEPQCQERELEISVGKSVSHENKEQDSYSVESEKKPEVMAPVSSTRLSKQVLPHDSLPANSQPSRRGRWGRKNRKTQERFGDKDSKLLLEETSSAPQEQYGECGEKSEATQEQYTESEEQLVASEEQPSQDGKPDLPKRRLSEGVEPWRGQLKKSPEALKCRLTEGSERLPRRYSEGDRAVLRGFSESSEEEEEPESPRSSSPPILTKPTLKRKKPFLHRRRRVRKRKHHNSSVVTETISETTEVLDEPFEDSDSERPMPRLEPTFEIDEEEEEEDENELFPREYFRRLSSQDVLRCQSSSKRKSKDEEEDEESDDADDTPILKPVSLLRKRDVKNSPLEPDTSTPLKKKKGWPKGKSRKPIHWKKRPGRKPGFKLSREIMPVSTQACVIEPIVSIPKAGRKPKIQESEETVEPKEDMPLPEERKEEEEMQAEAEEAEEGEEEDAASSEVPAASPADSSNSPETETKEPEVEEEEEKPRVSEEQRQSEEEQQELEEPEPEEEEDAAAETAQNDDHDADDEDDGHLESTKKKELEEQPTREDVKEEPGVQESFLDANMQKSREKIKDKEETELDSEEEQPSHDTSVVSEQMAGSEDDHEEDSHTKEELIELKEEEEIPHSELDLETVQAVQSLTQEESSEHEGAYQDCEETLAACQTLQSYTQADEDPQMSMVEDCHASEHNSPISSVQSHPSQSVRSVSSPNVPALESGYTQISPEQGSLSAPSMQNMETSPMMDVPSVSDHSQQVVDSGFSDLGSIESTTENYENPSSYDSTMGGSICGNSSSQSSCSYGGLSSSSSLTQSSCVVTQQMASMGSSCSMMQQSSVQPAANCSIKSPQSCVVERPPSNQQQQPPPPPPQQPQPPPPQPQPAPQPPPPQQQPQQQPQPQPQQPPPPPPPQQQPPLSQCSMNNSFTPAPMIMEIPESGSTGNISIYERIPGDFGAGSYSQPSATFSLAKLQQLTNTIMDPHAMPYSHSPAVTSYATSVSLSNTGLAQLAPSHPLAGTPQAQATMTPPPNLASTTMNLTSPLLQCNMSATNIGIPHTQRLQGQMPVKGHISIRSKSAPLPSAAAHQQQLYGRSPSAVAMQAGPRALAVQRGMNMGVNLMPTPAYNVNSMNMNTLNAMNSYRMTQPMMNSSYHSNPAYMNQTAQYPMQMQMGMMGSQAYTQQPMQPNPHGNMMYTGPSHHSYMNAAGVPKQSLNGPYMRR
KAT8 Full length enzyme, sequence (Q9H7Z6 whole entry): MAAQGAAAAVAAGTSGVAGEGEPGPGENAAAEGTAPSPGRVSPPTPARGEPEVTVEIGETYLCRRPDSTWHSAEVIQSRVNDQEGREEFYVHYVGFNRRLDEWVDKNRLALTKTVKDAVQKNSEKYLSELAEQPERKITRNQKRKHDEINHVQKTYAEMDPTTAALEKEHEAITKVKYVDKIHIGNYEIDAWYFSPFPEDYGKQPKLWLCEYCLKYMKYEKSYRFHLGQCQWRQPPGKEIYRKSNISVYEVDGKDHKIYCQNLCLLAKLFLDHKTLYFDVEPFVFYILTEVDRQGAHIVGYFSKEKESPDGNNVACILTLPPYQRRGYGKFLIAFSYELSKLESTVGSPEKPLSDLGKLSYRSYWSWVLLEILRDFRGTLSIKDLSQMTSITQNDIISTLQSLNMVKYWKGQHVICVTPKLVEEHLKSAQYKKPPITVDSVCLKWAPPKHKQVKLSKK

SMILES	Ki [1]	Ki (KAT5 Full length enzyme)	Ki [2]	Ki (KAT6A Full length enzyme)	Ki (KAT8 Full length enzyme)	Ki [3]
COc1cc2c(NS(=O)(=O)c3ccc(C)cc3OC)noc2cc1Nc1cc[nH]n1 [Example 23, 2-methoxy-N-{5-methoxy-6-[(1H-pyrazol-3-yl)amino]-1,2-benzoxazol-3-yl}-4-methylbenzene-1-sulfonamide]	36.7 nM	418 nM	95.2 nM	0.9 nM	1060 nM	212 nM
COc1cc2c(NS(=O)(=O)c3ccc(C)cc3OCC(F)F)noc2cc1Nc1cc(C(C)C)[nH]n1 [Example 62, 2-(2,2-difluoroethoxy)-N-(5-methoxy-6-{[5-(propan-2-yl)-1H-pyrazol-3-yl]amino}-1,2-benzoxazol-3-yl)-4-methylbenzene-1-sulfonamide]	38.1 nM	750 nM	35.3 nM	4.9 nM	5340 nM	191 nM
CCc1cc(Nc2cc3onc(NS(=O)(=O)c4c(OC)cccc4OC)c3cc2OC)[nH]n1 [Example 02, N-{6-[(3-ethyl-1H-pyrazol-5-yl)amino]-5-methoxy-1,2-benzoxazol-3-yl}-2,6-dimethoxybenzene-1-sulfonamide]	3.5 nM	305 nM	4.8 nM	1.1 nM	2270 nM	19.5 nM
CCc1nc(Nc2cc3onc(NS(=O)(=O)c4c(OC)cccc4OC)c3cc2OC)n[nH]1 [Example 40, N-{6-[(5-ethyl-1H-1,2,4-triazol-3-yl)amino]-5-methoxy-1,2-benzoxazol-3-yl}-2,6-dimethoxybenzene-1-sulfonamide]	49.1 nM	4600 nM	156 nM	3.1 nM	> 16300 nM	526 nM
COc1cc2c(NS(=O)(=O)c3c(OC)cccc3OC)noc2cc1Nc1cc(C)n[nH]1 [Example 84, 2,6-dimethoxy-N-{5-methoxy-6-[(3-methyl-1H-pyrazol-5-yl)amino]-1,2-benzoxazol-3-yl}benzene-1-sulfonamide]	12.2 nM	82.3 nM	10.1 nM	0.2 nM	2970 nM	50.6 nM
CCOc1cc(C)ccc1S(=O)(=O)Nc1noc2cc(Nc3cc[nH]n3)c(OC)cc12 [Example 29, 2-ethoxy-N-{5-methoxy-6-[(1H-pyrazol-3-yl)amino]-1,2-benzoxazol-3-yl}-4-methylbenzene-1-sulfonamide]	40.5 nM	594 nM	49.1 nM	1 nM	1380 nM	182 nM
COc1cc2c(NS(=O)(=O)c3cc(C(C)C)c(C)cc3OC)noc2cc1Nc1cc[nH]n1 [Example 26, 2-methoxy-N-{5-methoxy-6-[(1H-pyrazol-3-yl)amino]-1,2-benzoxazol-3-yl}-4-methyl-5-(propan-2-yl)benzene-1-sulfonamide]	14.7 nM	189 nM	71.5 nM	0.6 nM	154 nM	206 nM
COc1cc2c(NS(=O)(=O)c3c(OC)cccc3OC)noc2cc1Nc1cc(C2CCNCC2)n[nH]1 [Example 56, 2,6-dimethoxy-N-(5-methoxy-6-{[3-(piperidin-4-yl)-1H-pyrazol-5-yl]amino}-1,2-benzoxazol-3-yl)benzene-1-sulfonamide]	157 nM	22200 nM	512 nM	3 nM	7220 nM	594 nM
COc1cc(Nc2cc3onc(NS(=O)(=O)c4c(OC)cccc4OC)c3cc2OC)n[nH]1 [Example 44, 2,6-dimethoxy-N-{5-methoxy-6-[(5-methoxy-1H-pyrazol-3-yl)amino]-1,2-benzoxazol-3-yl}benzene-1-sulfonamide]	9.8 nM	1000 nM	16.2 nM	3.4 nM	> 16300 nM	48.2 nM

From patent publication US20250122183A1 (Pfizer Inc., priority 2023, published 2025)
